Data: ChEMBL document CHEMBL3351682, “NaSH in the construction of thiophene ring fused with N-heterocycles: a rapid and inexpensive synthesis of novel small molecules as potential inducers of apoptosis” (Bioorg Med Chem Lett, 2014)
Active and inactive are the calls of the source. The calls are words filed in the database; no cut-off is given here.

How the values were obtained:
Danio rerio [1] = species on record: Danio rerio; test: Induction of apoptosis in zebrafish embryo at 30 uM after 24 to 48 hrs by acridine orange staining based fluorescence microscopy; assay type: functional, organism-based
Danio rerio [2] = species on record: Danio rerio; test: Teratogenicity in zebrafish embryo at 1 to 30 uM incubated until 5 days post fertilization; assay type: ADME, organism-based; conditions: in vivo, 120 h
Danio rerio [3] = species on record: Danio rerio; test: Hepatotoxicity in zebrafish embryo at 1 to 30 uM incubated until 7 days post fertilization; assay type: organism-based; conditions: in vivo, 168 h
Danio rerio [4] = species on record: Danio rerio; test: Induction of apoptosis in zebrafish embryo after 24 to 48 hrs by acridine orange staining based fluorescence microscopy; assay type: functional, organism-based
Danio rerio [5] = species on record: Danio rerio; test: Teratogenicity in zebrafish embryo incubated until 5 days post fertilization; assay type: ADME, organism-based; conditions: in vivo, 120 h
Danio rerio [6] = species on record: Danio rerio; test: Hepatotoxicity in zebrafish embryo incubated until 7 days post fertilization; assay type: organism-based; conditions: in vivo, 168 h
[7] = Therapeutic index, ratio of NOAEL to apoptotic EC50 in Zebrafish embryo; assay type: organism-based, Danio rerio; conditions: in vivo, read-out: TI
Danio rerio [8] = species on record: Danio rerio; test: Induction of apoptosis in zebrafish embryo at 1 to 30 uM after 24 to 48 hrs by acridine orange staining based fluorescence microscopy; assay type: functional, organism-based
Danio rerio [9] = species on record: Danio rerio; test: Teratogenicity in zebrafish embryo at 30 uM incubated until 5 days post fertilization; assay type: ADME, organism-based; conditions: in vivo, 120 h
Danio rerio [10] = species on record: Danio rerio; test: Teratogenicity in zebrafish embryo at 10 uM incubated until 5 days post fertilization; assay type: ADME, organism-based; conditions: in vivo, 120 h
Danio rerio [11] = species on record: Danio rerio; test: Hepatotoxicity in zebrafish embryo at 10 uM incubated until 7 days post fertilization; assay type: organism-based; conditions: in vivo, 168 h
Danio rerio [12] = species on record: Danio rerio; test: Hepatotoxicity in zebrafish embryo assessed as induction of mortality at 30 uM incubated until 7 days post fertilization; assay type: organism-based; conditions: in vivo, 168 h
Danio rerio [13] = species on record: Danio rerio; test: Induction of apoptosis in zebrafish embryo at 1 to 3 uM after 24 to 48 hrs by acridine orange staining based fluorescence microscopy; assay type: functional, organism-based

Structure (SMILES)	Activity (Danio rerio [1])	Activity (Danio rerio [2])	Activity (Danio rerio [3])	EC50 (Danio rerio [4])	NOAEL (Danio rerio [5])	NOAEL (Danio rerio [6])	selectivity ratio [7]	Activity (Danio rerio [8])	Activity (Danio rerio [9])	Activity (Danio rerio [10])	Activity (Danio rerio [11])	Activity (Danio rerio [12])	Activity (Danio rerio [13])
Fc1cc(F)cc(-c2cc3nc4ccccc4nc3s2)c1	Active	Non-toxic	Non-toxic	10.3 µM	30 µM	30 µM	2.9	–	–	–	–	–	–
CC(C)(C)c1cc2nc3ccccc3nc2s1	Active	–	–	4.89 µM	3 µM	1 µM	0.2	Dose-dependent effect	Toxic	Non-toxic	Toxic	Toxic	–
CCCc1cc2nc3ccccc3nc2s1	Active	Non-toxic	Non-toxic	4.46 µM	30 µM	30 µM	6.72	Dose-dependent effect	–	–	–	–	–
Fc1cc(F)cc(-c2cc3nccnc3s2)c1	Active	Non-toxic	Non-toxic	9.82 µM	30 µM	30 µM	3.05	–	–	–	–	–	–
c1ccc(-c2cc3nc4ccccc4nc3s2)cc1	Active	–	Non-toxic	8.5 µM	10 µM	10 µM	1.17	–	Toxic	–	–	–	Active
